These results are taken from patent US20170326125A1, “MULTISUBSTITUTED AROMATIC COMPOUNDS AS INHIBITORS OF THROMBIN” (VERSEON CORPORATION, priority 2016, published 2017).

The target of the first assay is T1, Human thrombin (Homo sapiens, UniProt P00734).
T1 construct: purchased Haematologic Technologies Inc
Nature of the assay: Inhibition of the protease activity of thrombin (chromogenic substrate S-2238). Type of assay: biochemical. Conditions: inhibition of the protease activity of thrombin.
Consider `O=C(Nc1ccccc1Cl)n1nc(-c2cccnc2)nc1NCc1ccc(F)cc1` [Cmpd 200, N-(2-chlorophenyl)-5-[(4-fluorophenyl)methyl]amino-3-(pyridin-3-yl)-1H-1,2,4-triazole-1-carboxamide], for which the IC50 was greater than 1000 nM.
Turning to `COc1ccccc1C(=O)n1nc(-c2ccccn2)cc1NCc1ccco1` [Cmpd 201, N-(furan-2-ylmethyl)-1-[(2-methoxyphenyl)carbonyl]-3-(pyridin-2-yl)-1H-pyrazol-5-amine], the half-inhibitory concentration (IC50) lay within 100 to 1000 nM.
As for `COc1ccccc1C(=O)n1nc(-c2ccccn2)cc1NCc1ccoc1` [Cmpd 202, N-(furan-3-ylmethyl)-1-[(2-methoxyphenyl)carbonyl]-3-(pyridin-2-yl)-1H-pyrazol-5-amine], the concentration for half-maximal inhibition (IC50) lay within 100 to 1000 nM.
On the same count and under the same terms, the result for `Fc1ccc(CNc2nc(-c3ccccn3)nn2CCc2ccccc2)cc1` [Cmpd 203, N-[(4-fluorophenyl)methyl]-1-(2-phenylethyl)-3-(pyridin-2-yl)-1H-1,2,4-triazol-5-amine] reads greater than 1000 nM.
`Fc1ccc(CNc2nc(-c3ccccn3)n(CCc3ccccc3)n2)cc1` [Cmpd 204, N-[(4-fluorophenyl)methyl]-1-(2-phenylethyl)-5-(pyridin-2-yl)-1H-1,2,4-triazol-3-amine] returned an IC50 greater than 1000 nM.
For the compound `COc1cc(C)ccc1C(=O)n1nc(-c2ccccc2)nc1NCc1ccc(F)cc1` [Cmpd 205, N-[(4-fluorophenyl)methyl]-1-[(2-methoxy-4-methylphenyl)carbonyl]-3-phenyl-1H-1,2,4-triazol-5-amine], the IC50 was 100 to 1000 nM.
`COc1ccccc1C(=O)n1nc(-c2ccncc2)nc1NCc1ccc(F)cc1` [Cmpd 207, N-[(4-fluorophenyl)methyl]-1-[(2-methoxyphenyl)carbonyl]-3-(pyridin-4-yl)-1H-1,2,4-triazol-5-amine]: the IC50 was less than 100 nM.
For `COc1ccccc1C(=O)n1nc(-c2ccccc2)cc1NCc1ccc(F)cc1` [Cmpd 208, N-[(4-fluorophenyl)methyl]-1-[(2-methoxyphenyl)carbonyl]-3-phenyl-1H-pyrazol-5-amine], the IC50 is greater than 1000 nM.
`Cc1ccccc1C(=O)n1nc(-c2ccccc2)nc1NCc1ccc(F)cc1` [Cmpd 209, N-[(4-fluorophenyl)methyl]-1-[(2-methylphenyl)carbonyl]-3-phenyl-1H-1,2,4-triazol-5-amine]: the IC50 fell in the range of 100 to 1000 nM.
For `O=C(c1ccco1)n1nc(-c2ccccn2)nc1NCc1ccc(F)cc1` [Cmpd 210, N-[(4-fluorophenyl)methyl]-1-[(furan-2-yl)carbonyl]-3-(pyridin-2-yl)-1H-1,2,4-triazol-5-amine], the IC50 is less than 100 nM.
`O=C(c1ccco1)n1nc(-c2ccncc2)nc1NCc1ccc(F)cc1` [Cmpd 211, N-[(4-fluorophenyl)methyl]-1-[(furan-2-yl)carbonyl]-3-(pyridin-4-yl)-1H-1,2,4-triazol-5-amine] gave an IC50 of less than 100 nM.
Compound `O=C(c1ccoc1)n1nc(-c2ccccn2)nc1NCc1ccc(F)cc1` [Cmpd 212, N-[(4-fluorophenyl)methyl]-1-[(furan-3-yl)carbonyl]-3-(pyridin-2-yl)-1H-1,2,4-triazol-5-amine] gave an IC50 of less than 100 nM.
Still for that read-out and setting: under `O=C(c1ccoc1)n1nc(-c2cccnc2)nc1NCc1ccc(F)cc1` [Cmpd 213, N-[(4-fluorophenyl)methyl]-1-[(furan-3-yl)carbonyl]-3-(pyridin-3-yl)-1H-1,2,4-triazol-5-amine] stands less than 100 nM.

The assay is the same for the next values; noted with them: inhibition of the protease activity of thrombin; class symbols a/b/c.
Compound `CC(=O)c1cc(-c2ccccn2)nn1CCc1ccc(F)cc1` [Cmpd 164, 1-1-[2-(4-fluorophenyl)ethyl]-3-(pyridin-2-yl)-1H-pyrazol-5-ylethan-1-one] displayed an IC50 greater than 1000 nM.
In the case of `CC(C)(C)C(=O)n1nc(-c2ccccn2)cc1NCc1ccoc1` [Cmpd 166, 1-5-[(furan-3-ylmethyl)amino]-3-(pyridin-2-yl)-1H-pyrazol-1-yl-2,2-dimethylpropan-1-one], the IC50 was in the range of 100 to 1000 nM.
The same measure, in the same setting: the result for `CC(C)(C)C(=O)Nc1nc(C(=O)N2CCOCC2)n[nH]1` [Cmpd 169, 2,2-dimethyl-N-3-[(morpholin-4-yl)carbonyl]-1H-1,2,4-triazol-5-ylpropanamide] reads greater than 1000 nM; that for `O=C(Nc1nc(C(=O)N2CCOCC2)n[nH]1)c1ccccc1Cl` [Cmpd 170, 2-chloro-N-3-[(morpholin-4-yl)carbonyl]-1H-1,2,4-triazol-5-ylbenzamide], greater than 1000 nM.
The same measure, in the same setting: under `O=C(Nc1nc(C(=O)N2CCCC2)n[nH]1)c1ccccc1Cl` [Cmpd 171, 2-chloro-N-3-[(pyrrolidin-1-yl)carbonyl]-1H-1,2,4-triazol-5-ylbenzamide] stands greater than 1000 nM; under `O=C(Oc1ccccc1Cl)n1nc(-c2cccnc2)nc1NCc1ccc(F)cc1` [Cmpd 172, 2-chlorophenyl 5-[(4-fluorophenyl)methyl]amino-3-(pyridin-3-yl)-1H-1,2,4-triazole-1-carboxylate], greater than 1000 nM; under `O=C(Oc1ccccc1F)n1nc(-c2cccnc2)nc1NCc1ccc(F)cc1` [Cmpd 173, 2-fluorophenyl 5-[(4-fluorophenyl)methyl]amino-3-(pyridin-3-yl)-1H-1,2,4-triazole-1-carboxylate], greater than 1000 nM.
Consider `CC(=O)Oc1ccccc1C(=O)n1nc(-c2ccccn2)nc1NCc1ccccc1` [Cmpd 177, 2-[5-(benzylamino)-3-(pyridin-2-yl)-1H-1,2,4-triazol-1-yl]carbonylphenyl acetate], for which the IC50 was less than 100 nM.
For `c1cncc(-c2n[nH]c(NCc3cccs3)n2)c1` [Cmpd 178, 3-(pyridin-3-yl)-N-(thiophen-2-ylmethyl)-1H-1,2,4-triazol-5-amine], the concentration for half-maximal inhibition (IC50) was greater than 1000 nM.
In turn, `CCC(=O)n1nc(-c2cccnc2)nc1NCc1cccc(C#N)c1` [Cmpd 179, 3-([1-propanoyl-3-(pyridin-3-yl)-1H-1,2,4-triazol-5-yl]aminomethyl)benzonitrile] yielded an IC50 greater than 1000 nM.
On the same count and under the same terms, under `CSc1nc(-c2cccnc2)nn1C(=O)c1ccccc1Cl` [Cmpd 180, 3-1-[(2-chlorophenyl)carbonyl]-5-(methylsulfanyl)-1H-1,2,4-triazol-3-ylpyridine] stands less than 100 nM; under `O=C(c1ccccc1Cl)n1nc(-c2cccnc2)nc1SCc1ccc(F)cc1` [Cmpd 181, 3-1-[(2-chlorophenyl)carbonyl]-5-[(4-fluorophenyl)methyl]sulfanyl-1H-1,2,4-triazol-3-ylpyridine], 100 to 1000 nM; under `COc1ccccc1C(=O)n1nc(-c2cccnc2)nc1SC` [Cmpd 182, 3-1-[(2-methoxyphenyl)carbonyl]-5-(methylsulfanyl)-1H-1,2,4-triazol-3-ylpyridine], less than 100 nM.
The same measure, in the same setting: the result for `O=C(Nc1ccccc1)c1cn(-c2ccccn2)nc1NCc1ccc(F)cc1` [Cmpd 183, 3-[(4-fluorophenyl)methyl]amino-N-phenyl-1-(pyridin-2-yl)-1H-pyrazole-4-carboxamide] reads greater than 1000 nM.
On the same count and under the same terms, under `O=C(Nc1nc(C(=O)N2CCOCC2)n[nH]1)c1ccc(Cl)cc1` [Cmpd 184, 4-chloro-N-3-[(morpholin-4-yl)carbonyl]-1H-1,2,4-triazol-5-ylbenzamide] stands greater than 1000 nM; under `Cc1ccc(C(=O)Nc2nc(C(=O)N3CCOCC3)n[nH]2)cc1` [Cmpd 185, 4-methyl-N-3-[(morpholin-4-yl)carbonyl]-1H-1,2,4-triazol-5-ylbenzamide], greater than 1000 nM.
Regarding `CN(C)C(=O)c1n[nH]c(C(=O)Nc2ccccc2Cl)n1` [Cmpd 186, 5-C-(2-chlorobenzene)-3-N,3-N-dimethyl-1H-1,2,4-triazole-3,5-dicarboxamide], the half-inhibitory concentration (IC50) is greater than 1000 nM.
The same measure, in the same setting: under `CNC(=O)c1n[nH]c(C(=O)Nc2ccccc2Cl)n1` [Cmpd 187, 5-C-(2-chlorobenzene)-3-N-methyl-1H-1,2,4-triazole-3,5-dicarboxamide] stands greater than 1000 nM.
On the same count and under the same terms, under `CN(C)C(=O)n1nc(-c2cccnc2)nc1NCc1ccc(F)cc1` [Cmpd 188, 5-[(4-fluorophenyl)methyl]amino-N,N-dimethyl-3-(pyridin-3-yl)-1H-1,2,4-triazole-1-carboxamide] stands greater than 1000 nM; under `CC(C)NC(=O)n1nc(-c2cccnc2)nc1NCc1ccc(F)cc1` [Cmpd 190, 5-[(4-fluorophenyl)methyl]amino-N-(propan-2-yl)-3-(pyridin-3-yl)-1H-1,2,4-triazole-1-carboxamide], greater than 1000 nM; under `O=C(Nc1ccccc1)n1nc(-c2cccnc2)nc1NCc1ccc(F)cc1` [Cmpd 191, 5-[(4-fluorophenyl)methyl]amino-N-phenyl-3-(pyridin-3-yl)-1H-1,2,4-triazole-1-carboxamide], greater than 1000 nM.
`CCOC(=O)n1nc(-c2cccnc2)nc1NCc1ccc(F)cc1` [Cmpd 192, ethyl 5-[(4-fluorophenyl)methyl]amino-3-(pyridin-3-yl)-1H-1,2,4-triazole-1-carboxylate] came in with a half-maximal inhibitory concentration (IC50) of 100 to 1000 nM.
The same measure, in the same setting: the result for `COC(=O)c1n[nH]c(NC(=O)c2ccccc2F)n1` [Cmpd 193, methyl 5-[(2-fluorobenzene)amido]-1H-1,2,4-triazole-3-carboxylate] reads greater than 1000 nM; that for `COC(=O)c1n[nH]c(NC(=O)c2ccccc2OC)n1` [Cmpd 194, methyl 5-[(2-methoxybenzene)amido]-1H-1,2,4-triazole-3-carboxylate], greater than 1000 nM; that for `COC(=O)c1n[nH]c(NC(=O)c2cccc(Cl)c2)n1` [Cmpd 195, methyl 5-[(3-chlorobenzene)amido]-1H-1,2,4-triazole-3-carboxylate], greater than 1000 nM.
The same measure, in the same setting: under `COC(=O)c1n[nH]c(NC(=O)c2ccc(C)cc2)n1` [Cmpd 196, methyl 5-[(4-methylbenzene)amido]-1H-1,2,4-triazole-3-carboxylate] stands greater than 1000 nM.
In turn, `COc1ccccc1C(=O)n1nc(-c2ccccn2)nc1NCc1cc2ccccc2s1` [Cmpd 198, N-(1-benzothiophen-2-ylmethyl)-1-[(2-methoxyphenyl)carbonyl]-3-(pyridin-2-yl)-1H-1,2,4-triazol-5-amine] yielded an IC50 greater than 1000 nM.
`COc1ccccc1C(=O)n1nc(-c2ccccn2)nc1NCc1csc2ccccc12` [Cmpd 199, N-(1-benzothiophen-3-ylmethyl)-1-[(2-methoxyphenyl)carbonyl]-3-(pyridin-2-yl)-1H-1,2,4-triazol-5-amine] came in with an IC50 greater than 1000 nM.

By IC50 is commonly meant the midpoint of a concentration-inhibition curve. A high value points to a need for much substance.
